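Grown in 96-well plates, cells were treated for 48 hours with each compound at five concentrations. Insufficient inhibition: endpoint recorded as highest concentration tested. The concentration for 50% growth inhibition is given as GI50.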 Calls of active or inactive are those of the source. No stated cut-off is given here; in the data, active = GI50 up to about 1.1 µM and inactive = higher.
Key:
Assay in all cases: inhibition of tumour cell growth, NCI panel, 48 h
[1] = tested on: HL-60
[2] = tested on: HOP-62
[3] = tested on: HCT-116
[4] = tested on: EKVX
[5] = tested on: HOP-92
[6] = tested on: MDA-MB-231
[7] = tested on: SK-OV-3
[8] = tested on: OVCAR-5
[9] = tested on: CAKI-1
[10] = tested on: SF-268
[11] = tested on: IGROV-1
[12] = tested on: MDA-N
[13] = tested on: A549
[14] = tested on: SNB-75
[15] = tested on: NCI-H460
[16] = tested on: RXF 393
[17] = tested on: NCI-H226
[18] = tested on: RPMI-8226
[19] = tested on: SK-MEL-5
[20] = tested on: A498

COc1ccc(C)cc1N1C(=O)C2ON(Cc3ccc(CC(N)=O)cc3)C(c3c4ccccc4c(Cl)c4ccccc34)C2C1=O (centres undefined)
GI50 [1]: 27.6 µM (inactive) | GI50 [2]: 27.7 µM (inactive) | GI50 [3]: 15.1 µM (inactive) | GI50 [4]: 28.2 µM (inactive) | GI50 [5]: 32.6 µM (inactive) | GI50 [6]: 19.9 µM (inactive) | GI50 [7]: 31.8 µM (inactive) | GI50 [8]: 23.6 µM (inactive) | GI50 [9]: 25.8 µM (inactive) | GI50 [10]: 26.5 µM (inactive) | GI50 [11]: 33.2 µM (inactive) | GI50 [12]: 14.6 µM (inactive) | GI50 [13]: 55.2 µM (inactive) | GI50 [14]: 12.4 µM (inactive) | GI50 [15]: 18.4 µM (inactive) | GI50 [16]: 13.3 µM (inactive)

COC(=O)c1ccc(/C=N/c2cc(C)nn2-c2ccccc2)cc1
GI50 [1]: 20.1 µM (inactive) | GI50 [17]: 89.5 µM (inactive) | GI50 [2]: 18.5 µM (inactive) | GI50 [3]: 29 µM (inactive) | GI50 [4]: 75.7 µM (inactive) | GI50 [5]: 99.1 µM (inactive) | GI50 [6]: > 100 µM (inactive) | GI50 [7]: 34.4 µM (inactive) | GI50 [8]: > 100 µM (inactive) | GI50 [9]: 93.1 µM (inactive) | GI50 [10]: 57.1 µM (inactive) | GI50 [11]: 34.9 µM (inactive) | GI50 [18]: 20.4 µM (inactive) | GI50 [12]: 13.8 µM (inactive) | GI50 [13]: 76.6 µM (inactive) | GI50 [14]: 21.1 µM (inactive) | GI50 [15]: 10.6 µM (inactive) | GI50 [16]: > 100 µM (inactive) | GI50 [19]: 19.4 µM (inactive)

C/C(=N\n1c(Cc2ccccc2)n[nH]c1=O)c1ccc([N+](=O)[O-])cc1
GI50 [1]: > 100 µM (inactive) | GI50 [17]: > 100 µM (inactive) | GI50 [2]: 49.2 µM (inactive) | GI50 [3]: > 100 µM (inactive) | GI50 [4]: 74.5 µM (inactive) | GI50 [5]: 25.6 µM (inactive) | GI50 [6]: > 100 µM (inactive) | GI50 [8]: > 100 µM (inactive) | GI50 [9]: 78.5 µM (inactive) | GI50 [11]: > 100 µM (inactive) | GI50 [18]: 50.4 µM (inactive) | GI50 [12]: > 100 µM (inactive) | GI50 [13]: > 100 µM (inactive) | GI50 [15]: > 100 µM (inactive) | GI50 [16]: 16.6 µM (inactive) | GI50 [19]: > 100 µM (inactive)

CN(CCN(C)C(=S)NN)C(=S)NN
GI50 [1]: > 100 µM (inactive) | GI50 [2]: > 100 µM (inactive) | GI50 [3]: > 100 µM (inactive) | GI50 [4]: > 100 µM (inactive) | GI50 [6]: > 100 µM (inactive) | GI50 [7]: > 100 µM (inactive) | GI50 [8]: > 100 µM (inactive) | GI50 [9]: > 100 µM (inactive) | GI50 [10]: > 100 µM (inactive) | GI50 [11]: > 100 µM (inactive) | GI50 [18]: > 100 µM (inactive) | GI50 [12]: > 100 µM (inactive) | GI50 [13]: > 100 µM (inactive) | GI50 [14]: > 100 µM (inactive) | GI50 [15]: > 100 µM (inactive) | GI50 [19]: > 100 µM (inactive)

COc1ccc(C2c3cc4c(cc3OC(N3CCOCC3)C2C)OCO4)c(OC)c1OC (centres undefined)
GI50 [2]: 26.9 µM (inactive) | GI50 [3]: 10.3 µM (inactive) | GI50 [4]: 24.2 µM (inactive) | GI50 [8]: 17.1 µM (inactive) | GI50 [9]: 2.51 µM (inactive) | GI50 [10]: 17.4 µM (inactive) | GI50 [11]: 15.1 µM (inactive) | GI50 [18]: 13.2 µM (inactive) | GI50 [12]: 2.45 µM (inactive) | GI50 [13]: 22.9 µM (inactive) | GI50 [15]: 20.5 µM (inactive) | GI50 [19]: 10.1 µM (inactive)

COc1ccc(-n2nnc(C(N)=O)c2O)cc1
GI50 [1]: > 100 µM (inactive) | GI50 [17]: > 100 µM (inactive) | GI50 [2]: > 100 µM (inactive) | GI50 [3]: > 100 µM (inactive) | GI50 [20]: > 100 µM (inactive) | GI50 [4]: > 100 µM (inactive) | GI50 [6]: > 100 µM (inactive) | GI50 [7]: > 100 µM (inactive) | GI50 [8]: > 100 µM (inactive) | GI50 [9]: > 100 µM (inactive) | GI50 [10]: > 100 µM (inactive) | GI50 [11]: > 100 µM (inactive) | GI50 [18]: > 100 µM (inactive) | GI50 [12]: > 100 µM (inactive) | GI50 [13]: > 100 µM (inactive) | GI50 [14]: > 100 µM (inactive) | GI50 [15]: > 100 µM (inactive) | GI50 [16]: > 100 µM (inactive) | GI50 [19]: > 100 µM (inactive)

CC1(C)CC[C@]2(C(=O)O)CC[C@]3(C)[C@H](C(=O)C=C4[C@@]5(C)C=C(C#N)C(=O)C(C)(C)[C@@H]5CC[C@]43C)[C@@H]2C1 [BARDOXOLONE]
GI50 [1]: 0.205 µM (active) | GI50 [17]: 0.416 µM (active) | GI50 [2]: 0.665 µM (active) | GI50 [3]: 0.294 µM (active) | GI50 [20]: 0.391 µM (active) | GI50 [4]: 1.34 µM (inactive) | GI50 [5]: 1.29 µM (inactive) | GI50 [6]: 1.31 µM (inactive) | GI50 [7]: 0.875 µM (active) | GI50 [8]: 0.488 µM (active) | GI50 [9]: 0.687 µM (active) | GI50 [10]: 0.659 µM (active) | GI50 [11]: 0.762 µM (active) | GI50 [18]: 0.0214 µM (active) | GI50 [13]: 1.16 µM (inactive) | GI50 [14]: 0.45 µM (active) | GI50 [15]: 0.486 µM (active) | GI50 [16]: 0.0995 µM (active) | GI50 [19]: 0.258 µM (active)

CC(=O)Oc1c2oc3cc(O)c(O)cc3c2c(OC(C)=O)c2oc3cc(O)c(O)cc3c12 [POLYOZELLIN]
GI50 [1]: 3.08 µM (inactive) | GI50 [17]: 19.2 µM (inactive) | GI50 [2]: 16.1 µM (inactive) | GI50 [3]: 18.7 µM (inactive) | GI50 [4]: 20.6 µM (inactive) | GI50 [7]: 20.8 µM (inactive) | GI50 [8]: 25.5 µM (inactive) | GI50 [9]: 29.2 µM (inactive) | GI50 [10]: 20.7 µM (inactive) | GI50 [11]: 18.2 µM (inactive) | GI50 [18]: > 10 µM (inactive) | GI50 [12]: 23.6 µM (inactive) | GI50 [13]: 35 µM (inactive) | GI50 [14]: 15.8 µM (inactive) | GI50 [15]: 18.6 µM (inactive) | GI50 [16]: 18.1 µM (inactive) | GI50 [19]: 18.6 µM (inactive)

— ChEMBL document CHEMBL1201862, “PubChem BioAssay data set” (2004)
